Assay [1] has as its system P388 cells. As to the kind of experiment: Cytotoxicity, murine P388 leukemic cells (P388 D1). As to conditions: for IC50: read-out: P388 cells IC50.
The subject of assay [2] is CEM cells. As to the kind of experiment: Cytotoxicity, CEM human T-lymphocytes. As to conditions: for IC50: Homo sapiens, CCRF-CEM, read-out: CEM cells IC50; for TIL1210 (CEM cells): IC50 T-lymphocytes (CEM)/IC50 L1210; for TIP388 (CEM cells): IC50 T-lymphocytes (CEM)/IC50 P388; for TIht (CEM cells): IC50 T-lymphocytes (CEM)/IC50 human tumors.
Assay [3] has as its system human tumors. Description: Cytotoxicity, human tumor cell line panel (approximately 55 lines). The conditions noted are these: for Selective toxicity towards leukemia: human tumor screen; for IC50: read-out: human tumors IC50, mean graph midpoint, approximately 55 cell lines, hydrobromide salts used for 4a, 11a-e.
Assay [4] has as its system Molt 4/C8 cells. Description: Cytotoxicity, Molt 4/C8 human T-lymphocytes. The conditions noted are these: for TIL1210 (Molt 4/C8 cells): IC50 T-lymphocytes (Molt 4/C8)/IC50 L1210; for TIP388 (Molt 4/C8 cells): IC50 T-lymphocytes (Molt 4/C8)/IC50 P388; for TIht (Molt 4/C8 cells): IC50 T-lymphocytes (Molt 4/C8)/IC50 human tumors; for IC50: read-out: Molt 4/C8 cells IC50.
For assay [5], the system named is L1210 cells. As to the kind of experiment: Cytotoxicity, murine L1210 leukemic cells. The conditions noted are these: Mus musculus, mean. The assay is classed as cell-based.

SMILES strings stand for the structures.

As to `CCN(CC)CCC(=O)/C=C/c1ccccc1` [Compound 1a], the IC50 in assay [1] worked out at 1.7 µM. Moreover, in assay [2], the IC50 is 33.9 µM, the “TIL1210 (CEM cells)” value is listed as 1.32, the “TIP388 (CEM cells)” value was 19.92 and the “TIht (CEM cells)” value was 3.47. In assay [3], the “Selective toxicity towards leukemia” value is listed as “this property was also noted” and the IC50 was found to be 9.77 µM. Besides, in assay [4], the “TIL1210 (Molt 4/C8 cells)” value came to 1.66, the “TIP388 (Molt 4/C8 cells)” value worked out at 25.04, the “TIht (Molt 4/C8 cells)” value turned out to be 4.36 and the IC50 is 42.6 µM. The compound also registered an IC50 in assay [5] of 25.7 µM.
On to `CCN(CC)CCC(=O)/C=C/c1ccc(Cl)cc1` [Compound 1b], for which, in assay [1], the “potency relative to melphalan, P388” value is given as “more than half the potency of melphalan” and the IC50 amounted to 0.3 µM. In assay [2], the IC50 was 53.3 µM, the “TIL1210 (CEM cells)” value is listed as 1.30 and the “TIP388 (CEM cells)” value worked out at 177.6. In addition, in assay [4], the “TIL1210 (Molt 4/C8 cells)” value is on record as 0.98, the “TIP388 (Molt 4/C8 cells)” value amounted to 134.6 and the IC50 came to 40.4 µM. In assay [5], this compound came in with an IC50 of 41 µM.
On to `CCN(CC)CCC(=O)/C=C/c1ccc(Cl)c(Cl)c1` [Compound 1c], for which, in assay [1], the “potency relative to melphalan, P388” value is listed as “more than half the potency of melphalan” and the IC50 was 0.39 µM. For the same compound, in assay [2], the IC50 was 55.8 µM, the “TIL1210 (CEM cells)” value was determined as 0.91, the “TIP388 (CEM cells)” value came to 143.2 and the “TIht (CEM cells)” value amounted to 14.70. Moreover, the IC50 in assay [3] worked out at 3.8 µM. Also, in assay [4], the “TIL1210 (Molt 4/C8 cells)” value is 0.74, the “TIP388 (Molt 4/C8 cells)” value is 116.5, the “TIht (Molt 4/C8 cells)” value worked out at 11.96 and the IC50 amounted to 45.4 µM. The IC50 in assay [5] worked out at 61.2 µM.
Take `CCN(CC)CCC(=O)/C=C/c1ccc(C)cc1` [Compound 1d]: in assay [1], the IC50 amounted to 1.1 µM. In assay [2], the IC50 worked out at 48.6 µM, the “TIL1210 (CEM cells)” value is on record as 0.92 and the “TIP388 (CEM cells)” value was 44.19. Moreover, in assay [4], the “TIL1210 (Molt 4/C8 cells)” value was 1.05, the “TIP388 (Molt 4/C8 cells)” value stood at 50.65 and the IC50 was 55.7 µM. Also, in assay [5], the IC50 was determined as 52.9 µM.
Take `CCN(CC)CCC(=O)/C=C/c1ccc(OC)cc1` [Compound 1e]: the IC50 in assay [1] was found to be 0.67 µM. Besides, in assay [2], the IC50 was 48.6 µM, the “TIL1210 (CEM cells)” value is given as 1.10 and the “TIP388 (CEM cells)” value was determined as 72.55. For the same compound, in assay [4], the “TIL1210 (Molt 4/C8 cells)” value is on record as 1.17, the “TIP388 (Molt 4/C8 cells)” value amounted to 77.69 and the IC50 amounted to 52.1 µM. Besides, in assay [5], the IC50 amounted to 44.3 µM.
In the case of `CCN(CC)CCC(=O)c1ccccc1` [Compound 4a], the IC50 in assay [1] worked out at 2.6 µM. Further, in assay [2], the IC50 came out at 38.5 µM, the “TIL1210 (CEM cells)” value worked out at 1.90, the “TIP388 (CEM cells)” value turned out to be 14.81 and the “TIht (CEM cells)” value is 1.53. Further, in assay [3], the IC50 was found to be 25.1 µM. Further, in assay [4], the “TIL1210 (Molt 4/C8 cells)” value was 0.86, the “TIP388 (Molt 4/C8 cells)” value was determined as 6.68, the “TIht (Molt 4/C8 cells)” value is 0.69 and the IC50 is 17.4 µM. In assay [5], this compound came in with an IC50 of 20.3 µM.
Turning to `CCN(CC)CCC(=O)c1ccc(Cl)cc1` [Compound 4b], the IC50 in assay [1] was 3.2 µM. In assay [2], the IC50 came to 40 µM, the “TIL1210 (CEM cells)” value was determined as 1.08 and the “TIP388 (CEM cells)” value is given as 12.50. For the same compound, in assay [4], the “TIL1210 (Molt 4/C8 cells)” value was 0.62, the “TIP388 (Molt 4/C8 cells)” value is 7.13 and the IC50 was determined as 22.8 µM. In assay [5], the IC50 is 36.9 µM.
In the case of `CCN(CC)CCC(=O)c1ccc(Cl)c(Cl)c1` [Compound 4c], the “potency relative to melphalan, P388” value in assay [1] is recorded as “more than half the potency of melphalan”.
For `CCN(CC)CCC(=O)c1ccc(C)cc1` [Compound 4d], the IC50 in assay [1] worked out at 2.2 µM. Besides, in assay [2], the IC50 stood at 64.1 µM, the “TIL1210 (CEM cells)” value is reported as 2.98, the “TIP388 (CEM cells)” value is on record as 29.15 and the “TIht (CEM cells)” value turned out to be 2.44. The IC50 in assay [3] came to 26.3 µM. Moreover, in assay [4], the “TIL1210 (Molt 4/C8 cells)” value is listed as 2.96, the “TIP388 (Molt 4/C8 cells)” value is reported as 28.97, the “TIht (Molt 4/C8 cells)” value was determined as 2.42 and the IC50 worked out at 63.7 µM. The IC50 in assay [5] is 21.5 µM.
Regarding `O=C(/C=C/c1ccccc1)CCN1CCN(CCC(=O)/C=C/c2ccccc2)CC1` [Compound 8a], the IC50 in assay [1] amounted to 0.62 µM. In assay [2], the IC50 was found to be 5.55 µM, the “TIL1210 (CEM cells)” value was determined as 0.96, the “TIP388 (CEM cells)” value amounted to 3.95 and the “TIht (CEM cells)” value worked out at 0.46. Moreover, in assay [3], the IC50 turned out to be 12 µM. In assay [4], the “TIL1210 (Molt 4/C8 cells)” value stood at 0.95, the “TIP388 (Molt 4/C8 cells)” value is given as 8.89, the “TIht (Molt 4/C8 cells)” value is 0.46 and the IC50 amounted to 5.51 ± 2.73 µM. In assay [5], this compound returned an IC50 of 5.78 µM.
In the case of `O=C(CCN1CCN(CCC(=O)c2ccccc2)CC1)c1ccccc1` [Compound 8b], in assay [1], the IC50 amounted to 2.84 µM. Further, in assay [2], the IC50 is 16 µM, the “TIL1210 (CEM cells)” value turned out to be 1.65 and the “TIP388 (CEM cells)” value came out at 5.64. Besides, in assay [4], the “TIL1210 (Molt 4/C8 cells)” value is 2.69, the “TIP388 (Molt 4/C8 cells)” value came out at 9.20 and the IC50 came out at 26.1 µM. Besides, in assay [5], the IC50 stood at 9.71 µM.
On to `CCN1CCC(O)(/C=C/c2ccc(Cl)c(Cl)c2)C(C(=O)/C=C/c2ccc(Cl)c(Cl)c2)C1` (stereo not shown) [Compound 9c], for which the “potency relative to melphalan, P388” value in assay [1] was “more than half the potency of melphalan”. Further, the IC50 worked out at 0.4 µM in assay [1] and 0.38 µM in assay [3].
Regarding `CC[N+]1(C)CCC(O)(/C=C/c2ccc(C)cc2)C(C(=O)/C=C/c2ccc(C)cc2)C1` (stereo not shown) [Compound 10d], in assay [1], the IC50 amounted to 0.62 µM. In assay [2], the IC50 was found to be 3.92 µM, the “TIL1210 (CEM cells)” value is 0.28 and the “TIP388 (CEM cells)” value is 6.32. Further, in assay [4], the “TIL1210 (Molt 4/C8 cells)” value was found to be 0.45, the “TIP388 (Molt 4/C8 cells)” value stood at 9.98 and the IC50 was found to be 6.19 ± 0.7 µM. The compound further displayed an IC50 in assay [5] of 13.8 µM.
`CCN1CCC(O)(c2ccc(Cl)c(Cl)c2)C(C(=O)c2ccc(Cl)c(Cl)c2)C1` (stereo not shown) [Compound 11c]: the IC50 in assay [1] is 3.11 µM; in assay [3], 16.6 µM.
Regarding `CC[N+]1(C)CCC(O)(c2ccccc2)C(C(=O)c2ccccc2)C1` (stereo not shown) [Compound 12a], the IC50 in assay [1] came to 1.3 µM. In addition, in assay [3], the “Selective toxicity towards leukemia” value is listed as “Selective toxicity towards leukemia was observed” and the IC50 is 12.9 µM.
Regarding `CC[N+]1(C)CCC(O)(c2ccc(Cl)cc2)C(C(=O)c2ccc(Cl)cc2)C1` (stereo not shown) [Compound 12b], the IC50 in assay [1] is 1.5 µM. Besides, in assay [3], the “Selective toxicity towards leukemia” value is reported as “Selective toxicity towards leukemia was observed” and the IC50 worked out at 12.9 µM.
As for `CC[N+]1(C)CCC(O)(c2ccc(C)cc2)C(C(=O)c2ccc(C)cc2)C1` (stereo not shown) [Compound 12d], in assay [1], the IC50 is 2.1 µM. Further, in assay [3], the “activity relative to melphalan, human tumors” value is given as “five times more potent than melphalan” and the IC50 came out at 50.1 µM.
Consider `CC[N+]1(C)CCC(O)(c2ccc(OC)cc2)C(C(=O)c2ccc(OC)cc2)C1` (stereo not shown) [Compound 12e], for which, in assay [1], the IC50 worked out at 0.98 µM. Further, in assay [3], the “Selective toxicity towards leukemia” value is listed as “Selective toxicity towards leukemia was observed” and the IC50 is 10.2 µM.

For the origin of these results see patent publication US6017933A, “Mannich bases of conjugated styryl ketones” (University of Saskatchewan Technologies Inc., priority 1999, dated 2000).
